Broadly, the IC50 is the concentration that inhibits the measured activity by half.

23 molecules from patent US11999732B2, “P2X3 receptor antagonists” (RECORDATI INDUSTRIA CHIMICA E FARMACEUTICA SPA, priority 2018, dated 2024) can be followed below.

Like-named read-outs stand apart in the source and are kept apart here.

The assay deals with T1, human P2X3 receptor (Homo sapiens, UniProt P56373).
T1 construct: expressed in transfected cells; host or cells: CHO-K1
T1 sequence (P56373 1-397): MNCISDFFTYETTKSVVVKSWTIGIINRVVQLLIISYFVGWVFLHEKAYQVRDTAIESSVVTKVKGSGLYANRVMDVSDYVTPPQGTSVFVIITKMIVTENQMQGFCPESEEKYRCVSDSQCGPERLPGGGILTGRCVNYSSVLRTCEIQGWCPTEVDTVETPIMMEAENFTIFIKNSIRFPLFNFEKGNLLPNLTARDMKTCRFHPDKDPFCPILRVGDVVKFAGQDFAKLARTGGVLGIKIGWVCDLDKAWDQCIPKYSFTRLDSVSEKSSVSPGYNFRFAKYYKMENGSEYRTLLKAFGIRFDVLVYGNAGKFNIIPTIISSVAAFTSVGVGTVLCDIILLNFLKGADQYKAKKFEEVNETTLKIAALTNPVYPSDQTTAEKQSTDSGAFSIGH
Briefly: Calcium luminescence (photoprotein) assay in CHO-K1 cells co-expressing human P2X3 receptor, α,β-Met-ATP stimulation, FLEXSTATION readout. In kind it is cell-based. The conditions noted are these: human P2X3 receptor antagonist activity, CHO-K1 cells, α,β-Met-ATP, read-out: h-P2X3 IC50. In outline:
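CHO-K1 cells co-expressing human P2X3 and a Ca2+-sensitive photoprotein, loaded with coelenterazine in Tyrode's buffer (pH 7.4) for 4 h at 37 °C. Compounds injected 4 min before α,β-Met-ATP stimulation; luminescence recorded, IC50 and pseudo-Hill slope from nonlinear regression of inhibition curves.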

Consider `CC(C)Cc1nnc2c3ncc(N4CCOCC4)cc3c(Cc3ccc(Cl)cc3)nn12` [Example 133, 6-(4-chlorobenzyl)-3-(2-methylpropyl)-8-(morpholin-4-yl)pyrido[2,3-d][1,2,4]triazolo[4,3-b]pyridazine], for which the half-inhibitory concentration (IC50) (Table 8) amounted to 217 nM.
In the case of `Cc1ccc(Cc2nn3c(CC4CCCCC4)nnc3c3ncccc23)cc1` [Example 136, 3-(cyclohexylmethyl)-6-(4-methylbenzyl)pyrido[2,3-d][1,2,4]triazolo[4,3-b]pyridazine], the concentration for half-maximal inhibition (IC50) (Table 8) is 1790 nM.
As to `Cc1ccc(Cc2nn3c(CC4CCCCC4)nnc3c3ncc(N4CCOCC4)cc23)cc1` [Example 137, 3-(cyclohexylmethyl)-6-(4-methylbenzyl)-8-(morpholin-4-yl)pyrido[2,3-d][1,2,4]triazolo[4,3-b]pyridazine], the concentration for half-maximal inhibition (IC50) (Table 8) is 234 nM.
Consider `CC(C)(C)OC(=O)NC1CCN(c2cnc3c(c2)c(Cc2ccc(Cl)cc2)nn2c(C(C)(C)C)nnc32)CC1` [Example 138, tert-butyl n-[1-[5-tert-butyl-8-(4-chlorobenzyl)-3,4,6,7,13-pentazatricyclo[7.4.0.02,6]trideca-1(9),2,4,7,10,12-hexaen-11-yl]-4-piperidyl]carbamate], for which, under “Table 8”, the half-maximal inhibitory concentration (IC50) is 3340 nM.
As for `CC(C)(C)c1nnc2c3ncc(N4CCC(N)CC4)cc3c(Cc3ccc(Cl)cc3)nn12` [Example 139, 1-[5-tert-butyl-8-(4-chlorobenzyl)-3,4,6,7,13-pentazatricyclo[7.4.0.02,6]trideca-1(9),2,4,7,10,12-hexaen-11-yl]piperidin-4-amine], the half-maximal inhibitory concentration (IC50) (Table 8) worked out at 379 nM.
For `CC(C)(C)c1nnc2c3ncc(N4CCC(O)CC4)cc3c(Cc3ccc(Cl)cc3)nn12` [Example 140, 1-[5-tert-butyl-8-(4-chlorobenzyl)-3,4,6,7,13-pentazatricyclo[7.4.0.02,6]trideca-1(9),2,4,7,10,12-hexaen-11-yl]piperidin-4-ol], for the setting “Table 8”, the IC50 was 309 nM.
As for `CC1(C)CN=C2c3ncc(NCCO)cc3N(Cc3ccc(Cl)cc3)C(=O)N2C1` [Example 143, 5-(4-chlorobenzyl)-3-[(2-hydroxyethyl)amino]-9,9-dimethyl-5,8,9,10-tetrahydro-6H-pyrido[2,3-e]pyrimido[1,2-c]pyrimidin-6-one], the IC50 (Table 9) turned out to be 2260 nM.
With `COc1cc(CN2C(=O)N3CC(C)(C)CN=C3c3ncc(NCCO)cc32)cc(OC)c1` [Example 144, 5-(3,5-dimethoxybenzyl)-3-[(2-hydroxyethyl)amino]-9,9-dimethyl-5,8,9,10-tetrahydro-6H-pyrido[2,3-e]pyrimido[1,2-c]pyrimidin-6-one], the IC50 (Table 9) is 2480 nM.
Regarding `COc1cc(CN2C(=O)N3CC(C)CN=C3c3ncc(N4CCOCC4)cc32)cc(OC)c1` (centres unmarked) [Example 145, 5-(3,5-dimethoxybenzyl)-9-methyl-3-(morpholin-4-yl)-5,8,9,10-tetrahydro-6H-pyrido[2,3-e]pyrimido[1,2-c]pyrimidin-6-one], the IC50 (Table 9) came out at 1780 nM.
For `COc1cc(CN2C(=O)N3CC(C)(C)CN=C3c3ncc(N4CCOCC4)cc32)cc(OC)c1` [Example 147, 5-(3,5-dimethoxybenzyl)-9,9-dimethyl-3-(morpholin-4-yl)-5,8,9,10-tetrahydro-6H-pyrido[2,3-e]pyrimido[1,2-c]pyrimidin-6-one], the IC50 (Table 9) was found to be 2440 nM.
With `CCC1CCN=C2c3ncc(N4CCOCC4)cc3N(Cc3cc(OC)cc(OC)c3)C(=O)N21` (centres unmarked) [Example 151, 5-(3,5-dimethoxybenzyl)-8-ethyl-3-(morpholin-4-yl)-5,8,9,10-tetrahydro-6H-pyrido[2,3-e]pyrimido[1,2-c]pyrimidin-6-one], the IC50 (Table 9) came to 938 nM.
Same read-out and setting: then `CCC1CCN2C(=O)N(Cc3ccc(Cl)cc3)c3cc(N4CCOCC4)cnc3C2=N1` (centres unmarked) [Example 154, 5-(4-chlorobenzyl)-10-ethyl-3-(morpholin-4-yl)-5,8,9,10-tetrahydro-6H-pyrido[2,3-e]pyrimido[1,2-c]pyrimidin-6-one], with 1050 nM.
The same measure, in the same setting: then `CCC1CCN=C2c3ncc(N4CCOCC4)cc3N(Cc3ccc(Cl)cc3)C(=O)N21` (centres unmarked) [Example 155, 5-(4-chlorobenzyl)-8-ethyl-3-(morpholin-4-yl)-5,8,9,10-tetrahydro-6H-pyrido[2,3-e]pyrimido[1,2-c]pyrimidin-6-one], with 2170 nM; and `COc1ccc(Cn2c(=O)n3nc(CC(C)C)nc3c3ncc(N4CCOCC4)cc32)cc1` [Example 156, 6-(4-methoxybenzyl)-2-(2-methylpropyl)-8-(morpholin-4-yl)pyrido[2,3-e][1,2,4]triazolo[1,5-c]pyrimidin-5(6H)-one], with 608 nM.
Regarding `COc1ccc(Cn2c(=O)n3nc(C(C)(C)C)nc3c3ncc(N4CCOCC4)cc32)cc1` [Example 157, 2-tert-butyl-6-(4-methoxybenzyl)-8-(morpholin-4-yl)pyrido[2,3-e][1,2,4]triazolo[1,5-c]pyrimidin-5(6H)-one], where the note is “Table 9”, the 50% inhibitory concentration (IC50) came out at 495 nM.
Regarding `COc1cc(CN2C(=O)N3CC(C)(C)N=C3c3ncc(N4CCOCC4)cc32)cc(OC)c1` [Example 161, 6-(3,5-dimethoxybenzyl)-2,2-dimethyl-8-(morpholin-4-yl)-2,6-dihydroimidazo[1,2-c]pyrido[2,3-e]pyrimidin-5(3H)-one], the IC50 (Table 9) was found to be 4290 nM.
Take `CC(C)C1C(=O)N=C2c3ncc(N4CCOCC4)cc3N(Cc3ccc(Cl)cc3)C(=O)N21` (centres unmarked) [Example 163, 6-(4-chlorobenzyl)-8-(morpholin-4-yl)-3-(propan-2-yl)imidazo[1,2-c]pyrido[2,3-e]pyrimidine-2,5(3H,6H)-dione]: the IC50 (Table 9) was 278 nM.
As for `COc1ccc(CN2C(=O)N3C(=NC(=O)C3C(C)C)c3ncc(N4CCOCC4)cc32)cc1` (centres unmarked) [Example 164, 6-(4-methoxybenzyl)-8-(morpholin-4-yl)-3-(propan-2-yl)imidazo[1,2-c]pyrido[2,3-e]pyrimidine-2,5(3H,6H)-dione], the IC50 (Table 9) came to 188 nM.
Still for that read-out and setting: the result for `CCN(CC)c1cnc2c(c1)N(Cc1ccc(OC)cc1)C(=O)N1C2=NC(=O)C1C(C)(C)C` (centres unmarked) [Example 165, 3-tert-butyl-8-(diethylamino)-6-(4-methoxybenzyl)imidazo[1,2-c]pyrido[2,3-e]pyrimidine-2,5(3H,6H)-dione] reads 702 nM; that for `COc1ncc2c(n1)c1nnc(C(C)(C)C)n1c(=O)n2Cc1ccc(Cl)cc1` [Example 168, 3-tert-butyl-6-(4-chlorobenzyl)-9-methoxypyrimido[4,5-e][1,2,4]triazolo[4,3-c]pyrimidin-5(6H)-one], 1390 nM.
For the molecule `CC(C)c1nnc2c3ncc(N4CCC(O)CC4)cc3n(Cc3ccc(Cl)cc3)c(=O)n12` [Example 171, 6-(4-chlorobenzyl)-8-(4-hydroxypiperidin-1-yl)-3-(propan-2-yl)pyrido[2,3-e][1,2,4]triazolo[4,3-c]pyrimidin-5(6H)-one], for the setting “Table 9”, the half-inhibitory concentration (IC50) was 700 nM.
The same measure, in the same setting: then `CC(C)(C)c1nnc2c3ncc(N4CCOCC4)cc3n(Cc3ccc(Cl)cn3)c(=O)n12` [Example 173, 3-tert-butyl-6-[(5-chloropyridin-2-yl)methyl]-8-(morpholin-4-yl)pyrido[2,3-e][1,2,4]triazolo[4,3-c]pyrimidin-5(6H)-one], with 2.59 nM; and `COc1ccc(Cn2c(=O)n3c(C4(C)CC4)nnc3c3ncc(N4CCOCC4)cc32)cc1` [Example 174, 6-(4-methoxybenzyl)-3-(1-methylcyclopropyl)-8-(morpholin-4-yl)pyrido[2,3-e][1,2,4]triazolo[4,3-c]pyrimidin-5(6H)-one], with 78.5 nM.
